Values of other authors in patent publication US20130309333A1, “METHOD AND COMPOSITION FOR TREATING FELINE SKIN DISORDERS” (priority 2011, published 2013).

Test system: cats
Details: general knowledge

## Nc1cc(N2CCCCC2)nc(N)[n+]1[O-] [minoxidil]
  toxicity to cats: highly toxic to cats
